Results on one compound are retold here after patent US20060281724A1, “Methods for Treating Shock” (priority 2005, published 2006).

SMILES strings stand for the structures.

For assay [1], the system named is rats subjected to 40% loss of total blood volume. As to the kind of experiment: Rat model of volume hemorrhagic trauma (blood loss model). Format: in vivo. Here is the method: Twenty-four rats were subjected to 40% loss of total blood volume, consisting of catheterization and laparotomy (soft tissue injury) to mimic trauma and hemorrhage. One hour after onset of hemorrhage, the animals were resuscitated with crystalloid fluid and packed red blood cells (PRBCs). Twelve animals received one subcutaneous injection of AET in a methyl cellulose suspension at a concentration of 40 mg/kg body weight in 100 μl/kg body weight, one hour after initiation of hemorrhage, but prior to fluid resuscitation. Twelve animals received subcutaneous methyl cellulose control injection at 100 μl/kg body weight.

For assay [2], the system named is rats hemorrhaged down to a mean arterial pressure of about 35-40 mmHg. As to the kind of experiment: Rat model of blood pressure hemorrhagic trauma (pressure reduction model). Format: in vivo. The following applies: two days after induction of hemorrhage; AET 40 mg/kg subcutaneous in methyl cellulose suspension, one hour after initiation of hemorrhage, prior to fluid resuscitation; untreated/control group 75%. Here is the method:
In a second model of hemorrhagic trauma, 15 rats were hemorrhaged as in Example 1 down to a mean arterial pressure of about 35-40 mmHg and resuscitated one hour from onset of hemorrhage with crystalloid and PRBCs. Seven […] subcutaneous injection of AET in a methyl cellulose suspension at a concentration of 40 mg/kg body weight in 100 μl/kg body weight, one hour after initiation of hemorrhage, but prior to fluid resuscitation. Eight animals received subcutaneous methyl cellulose control injection at 100 μl/kg body weight. Two days after induction of hemorrhage, mortality in the untreated group (n=8) was 75%.

For the compound `C[C@]12CCC(O)CC1=CC(O)[C@@H]1[C@@H]2CC[C@]2(C)C(O)CC[C@@H]12` (stereo partly drawn) [AET, trihydroxy-androst-5ene], the mortality entry in assay [1] (three days after hemorrhagic conditions that reduced total blood volume by 40%, FIG. 1) is recorded as “zero”. Besides, the survival rate in assay [1] (three days after induction of hemorrhage, AET 40 mg/kg subcutaneous in methyl cellulose suspension, one hour after initiation of hemorrhage, prior to fluid resuscitation, untreated group mortality 25%, P<0.04) was determined as 100%. Further, the mortality rate in assay [2] stood at 43%.
